In the NIST ThermoML archive (doi:10.1021/je1008747):

Conditions: Liquid

CCn1cc[n+](C)c1.C[C@H](O)C(=O)[O-] [3-ethyl-1-methylimidazolium (S)-2-hydroxypropanoate]
Conditions	mass density [kg/m3]
293.15 K, 101.33 kPa	1149.7
298.15 K, 101.33 kPa	1146.1
303.15 K, 101.33 kPa	1142.5
308.15 K, 101.33 kPa	1139
312.6 K, 100 kPa	1136
312.6 K, 10000 kPa	1140
312.6 K, 20000 kPa	1144
312.6 K, 30000 kPa	1148
312.6 K, 40000 kPa	1151
312.6 K, 50000 kPa	1155
312.6 K, 60000 kPa	1158
312.6 K, 70000 kPa	1162
312.6 K, 80000 kPa	1165
312.6 K, 90000 kPa	1168
312.6 K, 100000 kPa	1172
312.6 K, 110000 kPa	1175
312.6 K, 120000 kPa	1178
312.6 K, 130000 kPa	1181
312.6 K, 140000 kPa	1183
312.6 K, 150000 kPa	1186
312.6 K, 160000 kPa	1189
312.6 K, 170000 kPa	1192
312.6 K, 180000 kPa	1195
312.6 K, 190000 kPa	1197
312.6 K, 200000 kPa	1200
313.15 K, 101.33 kPa	1135.6
318.15 K, 101.33 kPa	1132.2
323.15 K, 101.33 kPa	1128.8
328.15 K, 101.33 kPa	1125.4
332.1 K, 10000 kPa	1126
332.1 K, 20000 kPa	1131
332.1 K, 30000 kPa	1135
332.1 K, 40000 kPa	1139
332.1 K, 50000 kPa	1142
332.1 K, 60000 kPa	1146
332.1 K, 70000 kPa	1149
332.1 K, 80000 kPa	1153
332.1 K, 90000 kPa	1156
332.1 K, 100000 kPa	1159
332.1 K, 110000 kPa	1163
332.1 K, 120000 kPa	1166
332.1 K, 130000 kPa	1169
332.1 K, 140000 kPa	1172
332.1 K, 150000 kPa	1175
332.1 K, 160000 kPa	1178
332.1 K, 170000 kPa	1180
332.1 K, 180000 kPa	1183
332.1 K, 190000 kPa	1186
332.1 K, 200000 kPa	1189
333.15 K, 101.33 kPa	1122.1
338.15 K, 101.33 kPa	1118.7
343.15 K, 101.33 kPa	1115.4
348.15 K, 101.33 kPa	1112.1
352.1 K, 10000 kPa	1113
352.1 K, 20000 kPa	1118
352.1 K, 30000 kPa	1122
352.1 K, 40000 kPa	1126
352.1 K, 50000 kPa	1130
352.1 K, 60000 kPa	1134
352.1 K, 70000 kPa	1137
352.1 K, 80000 kPa	1141
352.1 K, 90000 kPa	1144
352.1 K, 100000 kPa	1148
352.1 K, 110000 kPa	1151
352.1 K, 120000 kPa	1154
352.1 K, 130000 kPa	1157
352.1 K, 140000 kPa	1160
352.1 K, 150000 kPa	1164
352.1 K, 160000 kPa	1166
352.1 K, 170000 kPa	1169
352.1 K, 180000 kPa	1172
352.1 K, 190000 kPa	1175
352.1 K, 200000 kPa	1178
353.15 K, 101.33 kPa	1108.8
372.2 K, 10000 kPa	1101
372.2 K, 20000 kPa	1105
372.2 K, 30000 kPa	1110
372.2 K, 40000 kPa	1114
372.2 K, 50000 kPa	1118
372.2 K, 60000 kPa	1122
372.2 K, 70000 kPa	1126
372.2 K, 80000 kPa	1129
372.2 K, 90000 kPa	1133
372.2 K, 100000 kPa	1137
372.2 K, 110000 kPa	1140
372.2 K, 120000 kPa	1143
372.2 K, 130000 kPa	1147
372.2 K, 140000 kPa	1150
372.2 K, 150000 kPa	1153
372.2 K, 160000 kPa	1156
372.2 K, 170000 kPa	1159
372.2 K, 180000 kPa	1162
372.2 K, 190000 kPa	1165
372.2 K, 200000 kPa	1168
392.4 K, 10000 kPa	1088
392.4 K, 20000 kPa	1093
392.4 K, 30000 kPa	1098
392.4 K, 40000 kPa	1102
392.4 K, 50000 kPa	1106
392.4 K, 60000 kPa	1110
392.4 K, 70000 kPa	1114
392.4 K, 80000 kPa	1118
392.4 K, 90000 kPa	1122
392.4 K, 100000 kPa	1126
392.4 K, 110000 kPa	1129
392.4 K, 120000 kPa	1133
392.4 K, 130000 kPa	1136
392.4 K, 140000 kPa	1139
392.4 K, 150000 kPa	1143
392.4 K, 160000 kPa	1146
392.4 K, 170000 kPa	1149
392.4 K, 180000 kPa	1152
392.4 K, 190000 kPa	1155
392.4 K, 200000 kPa	1158
412.4 K, 10000 kPa	1076
412.4 K, 20000 kPa	1081
412.4 K, 30000 kPa	1086
412.4 K, 40000 kPa	1090
412.4 K, 50000 kPa	1095
412.4 K, 60000 kPa	1099
412.4 K, 70000 kPa	1103
412.4 K, 80000 kPa	1107
412.4 K, 90000 kPa	1111
412.4 K, 100000 kPa	1115
412.4 K, 110000 kPa	1119
412.4 K, 120000 kPa	1122
412.4 K, 130000 kPa	1126
412.4 K, 140000 kPa	1129
412.4 K, 150000 kPa	1132
412.4 K, 160000 kPa	1136
412.4 K, 170000 kPa	1139
412.4 K, 180000 kPa	1142
412.4 K, 190000 kPa	1145
412.4 K, 200000 kPa	1148
432.2 K, 10000 kPa	1064
432.2 K, 20000 kPa	1069
432.2 K, 30000 kPa	1074
432.2 K, 40000 kPa	1079
432.2 K, 50000 kPa	1084
432.2 K, 60000 kPa	1088
432.2 K, 70000 kPa	1093
432.2 K, 80000 kPa	1097
432.2 K, 90000 kPa	1101
432.2 K, 100000 kPa	1105
432.2 K, 110000 kPa	1109
432.2 K, 120000 kPa	1112
432.2 K, 130000 kPa	1116
432.2 K, 140000 kPa	1119
432.2 K, 150000 kPa	1123
432.2 K, 160000 kPa	1126
432.2 K, 170000 kPa	1130
432.2 K, 180000 kPa	1133
432.2 K, 190000 kPa	1136
432.2 K, 200000 kPa	1139
